The structures appear in SMILES notation.

Series [1] is described as follows: water vapour sorption isotherm (25° C.), DVS intrinsic system; hygroscopicity according to Ph. Eur. 5.11. The format is physicochemical. The settings on record: for water uptake levels (water vapour sorption): 25° C. The text has this:
The amorphous state can be classified as hygroscopic according to Ph. […] The water vapour sorption isotherm was acquired on a DVS intrinsic system from SMS.
Eur. criteria (section 5.11.).
The water vapour sorption isotherm was acquired on a DVS Intrinsic system from SMS.
(§1) The mono fumaric acid co-crystal form A1 is characterised by the following physical properties: • 1 eq. […] The DSC scan of mono fumaric acid co-crystal form A1 was acquired on a Mettler-Toledo DSC1 with a heating rate of 5 K/min, using nitrogen purge gas at 50 mL/min. […] Eur. criteria (section 5.11.). […] The water vapour sorption isotherm was acquired on a DVS intrinsic system from SMS. • The concentration levels of the mono fumaric acid co-crystal form A1 were determined at 37° C. after 15 min and 30 min in non-sink-dissolution experiments.
(§2) The hemi fumaric acid co-crystal form A2 is characterised by the following physical properties: • 0.5 eq. […] The DSC scan of the hemi fumaric acid co-crystal form A2 was acquired on a Mettler-Toledo DSC1 with a heating rate of 5 K/min, using nitrogen purge gas at 50 mL/min. […] Eur. Criteria (section 5.11.). […] The water vapour sorption isotherm was acquired on a DVS intrinsic system from SMS. • The concentration levels of the hemi fumaric acid co-crystal form A2 were determined at 37° C. after 15 min and 30 min in non-sink-dissolution experiments.

Series [2] can be described thus: non-sink dissolution experiments in biorelevant media at 37° C. The format is physicochemical. The settings on record: for Dissolution levels after 15 min / Dissolution levels after 30 min: 37° C., non-sink dissolution; for dissolution behaviour in biorelevant intestinal milieu (FaSSIF) compared to crystalline entities of the free compound: comparison in words. The protocol: as §1, §2

The mark [3] stands for this setting: full relative humidity range 0-98% RH.

With `COc1ncc(C2=CCOCC2)c2sc(NC(=O)N3CC[C@@]4(CCCOC4)C3)nc12` [amorphous state, (S)-7-Oxa-2-aza-spiro[4,5]decane-2-carboxylic acid [7-(3,6-dihydro2H-pyran-4-yl)-4-methoxy-thiazolo[4,5-c]pyridin-2-yl]-amide], in series [1] (25° C. water vapour sorption), the “humidity level at which tendencies for deliquescence are shown” value is over 90 % RH and the “hygroscopicity classification according to Ph. Eur. criteria (section 5.11.)” value (“hygroscopicity classification according” below) is on record as “hygroscopic”. Besides, the “water uptake levels (water vapour sorption)” value (“water uptake levels” for short) in series [1] (setting [3]) is on record as > 22 % (w/w).
`COc1ncc(C2=CCOCC2)c2sc(NC(=O)N3CC[C@@]4(CCCOC4)C3)nc12` [crystalline anhydrous form A1, (S)-7-Oxa-2-aza-spiro[4,5]decane-2-carboxylic acid [7-(3,6-dihydro2H-pyran-4-yl)-4-methoxy-thiazolo[4,5-c]pyridin-2-yl]-amide]: the “hygroscopicity classification according” value is given as “Slightly hygroscopic” in series [1] (25° C. water vapour sorption) and “slightly hygroscopic” in series [1] (25° C. water vapour sorption, listed as A1 form). Further, the “tendency to undergo hydrate formation upon exposure to elevated RH levels” value (shortened to “tendency”) in series [1] was “no tendency to undergo hydrate formation”. Further, the “water uptake levels” value in series [1] (full relative humidity range 0-98% RH, listed as A1 form) is reported as < 1 % (w/w).
Take `COc1ncc(C2=CCOCC2)c2sc(NC(=O)N3CC[C@@]4(CCCOC4)C3)nc12` [hemi fumaric acid co-crystal form A2, (S)-7-Oxa-2-aza-spiro[4,5]decane-2-carboxylic acid [7-(3,6-dihydro2H-pyran-4-yl)-4-methoxy-thiazolo[4,5-c]pyridin-2-yl]-amide]: the “Dissolution levels after 15 min” value in series [2] (FaSSIF [pH 6.5]) was found to be 317 µg/mL; in series [2] (FeSSIF [pH 5.0]) it was 651 µg/mL; in series [2] (SGF [pH 1.2]), 206 µg/mL. Further, the “Dissolution levels after 30 min” value amounted to 492 µg/mL in series [2] (FaSSIF [pH 6.5]), 899 µg/mL in series [2] (FeSSIF [pH 5.0]) and 292 µg/mL in series [2] (SGF [pH 1.2]). Moreover, in series [2], the “dissolution behaviour in biorelevant intestinal milieu (FaSSIF) compared to crystalline entities of the free compound” value is recorded as “improved dissolution behaviour”. In addition, the “hygroscopicity classification according” value in series [1] (25° C. water vapour sorption) is on record as “slightly hygroscopic”. Moreover, the “water uptake levels” value in series [1] (relative humidity range 0-80% RH) was ≤ 0.7 % (w/w).
In the case of `COc1ncc(C2=CCOCC2)c2sc(NC(=O)N3CC[C@@]4(CCCOC4)C3)nc12` [hemi tartaric acid co-crystal form NF2, (S)-7-Oxa-2-aza-spiro[4,5]decane-2-carboxylic acid [7-(3,6-dihydro2H-pyran-4-yl)-4-methoxy-thiazolo[4,5-c]pyridin-2-yl]-amide], the “Dissolution levels after 30 min” value in series [2] (FaSSIF [pH 6.5]) is on record as “approx. 145 μg/mL”.
With `COc1ncc(C2=CCOCC2)c2sc(NC(=O)N3CC[C@@]4(CCCOC4)C3)nc12` [mono 3-hydroxybenzoic acid co-crystal form NF1] [(S)-7-Oxa-2-aza-spiro[4,5]decane-2-carboxylic acid [7-(3,6-dihydro2H-pyran-4-yl)-4-methoxy-thiazolo[4,5-c]pyridin-2-yl]-amide], in series [1] (25° C. water vapour sorption), the “hygroscopicity classification according” value is “Not hygroscopic”. Also, the “tendency” value in series [1] was “no tendency to undergo hydrate formation”.
As to `COc1ncc(C2=CCOCC2)c2sc(NC(=O)N3CC[C@@]4(CCCOC4)C3)nc12` [mono fumaric acid co-crystal form A1, (S)-7-Oxa-2-aza-spiro[4,5]decane-2-carboxylic acid [7-(3,6-dihydro2H-pyran-4-yl)-4-methoxy-thiazolo[4,5-c]pyridin-2-yl]-amide], the entries for the “Dissolution levels after 15 min” value in series [2] (FaSSIF [pH 6.5]), in series [2] (FeSSIF [pH 5.0]) and in series [2] (SGF [pH 1.2]) were 278 µg/mL, 375 µg/mL and 331 µg/mL, respectively. Further, the “Dissolution levels after 30 min” value in series [2] (FaSSIF [pH 6.5]) was found to be 360 µg/mL; in series [2] (FeSSIF [pH 5.0]), 462 µg/mL; in series [2] (SGF [pH 1.2]) it was 385 µg/mL. Moreover, the “dissolution behaviour in biorelevant intestinal milieu (FaSSIF) compared to crystalline entities of the free compound” value in series [2] was “improved dissolution behaviour”. Also, the “hygroscopicity classification according” value in series [1] (25° C. water vapour sorption) is given as “Slightly hygroscopic”. Besides, the “tendency” value in series [1] is “no tendency to undergo hydrate formation”. Also, the “water uptake levels” value in series [1] (setting [3]) is given as < 3 % (w/w).

The values above are taken from patent US20260070928A1, “NOVEL CRYSTALLINE FORMS OF (S)-7-OXA-2-AZA-SPIRO[4.5]DECANE-2-CARBOXYLIC ACID [7-(3,6-DIHYDRO-2H-PYRAN-4-YL)-4-METHOXY-THIAZOLO[4,5-C]PYRIDIN-2-YL]-AMIDE AND CO-CRYSTAL FORMS THEREOF” (Domain Therapeutics S.A., priority 2022, published 2026).
